Experimental findings from publication PMC3158675, “Effective inhibitors of the essential kinase PknB and their potential as anti-mycobacterial agents” (Tuberculosis (Edinburgh, Scotland), 2011) are described below.

In this assay the test system is M. tuberculosis ompA mutant. It is filed as cell-based.

The structures appear in SMILES notation.

Regarding `CC[C@H]1OC(=O)[C@H](C)[C@@H](O[C@H]2C[C@@](C)(OC)[C@@H](O)[C@H](C)O2)[C@H](C)[C@@H](O[C@@H]2O[C@H](C)C[C@H](N(C)C)[C@H]2O)[C@](C)(O)C[C@@H](C)C(=O)[C@H](C)[C@@H](O)[C@]1(C)O` [erythromycin], the “Sensitivity of M. tuberculosis ompA mutant compared to wild type” value is on record as “slightly increased resistance”. As to `CN[C@H](CC(C)C)C(=O)N[C@H]1C(=O)N[C@@H](CC(N)=O)C(=O)N[C@H]2C(=O)N[C@H]3C(=O)N[C@H](C(=O)N[C@H](C(=O)O)c4cc(O)cc(O)c4-c4cc3ccc4O)[C@H](O)c3ccc(c(Cl)c3)Oc3cc2cc(c3O[C@@H]2O[C@H](CO)[C@@H](O)[C@H](O)[C@H]2O[C@H]2C[C@](C)(N)[C@H](O)[C@H](C)O2)Oc2ccc(cc2Cl)[C@H]1O` [vancomycin], the “Sensitivity of M. tuberculosis ompA mutant compared to wild type” value was “slightly increased resistance”.
